Source: patent US8008260B2, “Methods of protecting against apoptosis using lipopeptides” (Cleveland Clinic Foundation, priority 2005, dated 2011)
Peptide text beside a SMILES is read from it. * marks the point of attachment. Propyl(2R-PamO,3-PamO) = CCCCCCCCCCCCCCCC(=O)OC[C@H](C*)OC(=O)CCCCCCCCCCCCCCC

Assays:
[1] = system: ICR mice; assay: NOAEL determination, i.p. injection of increasing doses, two-week observation; format: in vivo
Description: The dose of NOAEL (No Obvious Adverse Effects Level) was determined by injecting intraperitoneally (i.p) ICR mice with the increasing doses of CBLB601 (0.3, 1, 3, 10, 30, 60, 100 μg/mouse). Control mice were injected with PBS. […] During the first week they were weighed daily. […] Thus, NOAEL for CBLB601 was determined to be 30 μg/mouse.

[2] = system: ICR mice; assay: Immune status of mice rescued from TBI (spleen and thymus weight, histology, flagellin immunization); format: in vivo
Description: To check the status of their immune systems, ICR mice were exposed to lethal (10 Gy) or non-lethal (6 Gy) doses of TBI 24 hr after they had been injected (i.m.) with 3 μg CBLB601/mouse or PBS. Groups of five mice from each condition were sacrificed very three days and their spleens and thymuses were removed and weighed. The weights of the spleens were normalized to the body weights of the corresponding animals and the results are presented in FIG. 15. PBS-treated mice that were exposed to 6 Gy of radiation took about 13-14 days to restore their spleens to normal weights, whereas CBLB601-treated mice exposed to 6 Gy of radiation had normal spleen weights by day 8. […] It took a longer period of time (˜30 days) to restore the thymuses to normal weights (not shown).
The spleens and thymuses from control and CBLB601-injected mice were examined microscopically for morphological changes at 3, 10 and 30 days after irradiation. […] There was no evidence of recovery of the splenic white pulp depletion in either group at day 10. Regenerative lymphoid hyperplasia in the thymus was evident in both groups at day 10, with the regeneration slightly more advanced in the control that in the CBLB601-treated mice.
To test the immune response of mice rescued from a lethal dose of gamma-irradiation (10 Gy of TBI) by CBLB601, several groups of such mice were subjected to immunization with a strong antigen, Salmonella flagellin. The mice were first immunized at 8, 18, or 20 weeks after irradiation, at which time they were 18, 25, and 33 weeks of age, respectively. Non-irradiated naïve mice at 29 weeks of age were used as a positive control for the immune response. The mice received a boost of flagellin one week after the first immunization, and another boost three weeks after the 2nd boost; anti-flagellin antibody titers were measured in mouse serum. To test the secondary immune response, the mice were bled again a month later to insure reduction of the antibody titers. This was followed by a 3rd boost of the antigen injection and measurement of anti-flagellin antibodies titers 10 days later. At the time of the 3rd boost, the irradiation mice were 38, 30, and 23 weeks old, and the control mice were 34 weeks old.

## CCCCCCCCCCCCCCCC(=O)OC[C@H](CSC[C@H](N)C(=O)N[C@@H](CO)C(=O)N[C@@H](CCCCN)C(=O)N[C@@H](CCCCN)C(=O)N[C@@H](CCCCN)C(=O)N[C@@H](CCCCN)C(=O)O)OC(=O)CCCCCCCCCCCCCCC [CBLB601, R-PAM2C-SKKKK] (H-C(Propyl(2R-PamO,3-PamO))SKKKK-OH)
[1]; 30 μg dose i.p.
  differences between treated and control mice: no noticeable differences
[1]; 60 μg dose i.p., around 3-4 days after treatment
  morbidity: signs of morbidity, such as slow motion and scruffy fur
[1]; 100 μg/mouse i.p., 1-2 days post-treatment
  mortality: Mortality was observed
[1]; 0.3-100 μg/mouse i.p., weighed daily in first week
  body weight versus control mice: no differences in weight
[1]; i.p., ICR mice
  NOAEL (No Obvious Adverse Effects Level): 30 μg/mouse
[2]; 3 μg/mouse i.m. 24 hr before TBI, not shown
  time to restore the thymuses to normal weights: ~30 days
[2]; 6 Gy TBI, 3 μg/mouse i.m. 24 hr before
  day by which spleen weights were normal: ≤ 8 days
[2]; 10 Gy TBI, 3 μg/mouse i.m. 24 hr before
  day by which spleen weights were completely restored: 13 to 14 days
[2]; 10 days post-irradiation, 10 Gy
  spleen histology, extramedullary hematopoiesis: mild to moderate multifocal extramedullary hematopoiesis (EMH)
[2]; mice rescued from 10 Gy TBI, immunized 8, 18 or 20 weeks after irradiation
  humoral immune response against flagellin: robust humoral immune response against flagellin that was indistinguishable from that of the naïve control mice
